# From PubChem BioAssay (NCI)
#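 Method: 48-hour compound exposure of cells in 96-well plates, five concentrations, linear interpolation of endpoints. At the GI50, growth is halved. TGI is the concentration that stops growth completely.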
# Legend:
# Test in all cases: growth of human tumour cells (NCI), 48 h
# [1] = system: 786-0 renal
# [2] = system: A498 renal
# [3] = system: A549 NSCLC
# [4] = system: ACHN renal
# [5] = system: BT-549 breast
# [6] = system: CAKI-1 renal
# [7] = system: COLO 205 colon
# [8] = system: DU-145 prostate
# [9] = system: EKVX NSCLC
# [10] = system: HCC-2998 colon
# [11] = system: HCT-116 colon
# [12] = system: HCT-15 colon
# [13] = system: HL-60(TB) leukemia
# [14] = system: HOP-62 NSCLC
# [15] = system: HOP-92 NSCLC
# [16] = system: HS 578T breast
# [17] = system: HT29 colon
# [18] = system: IGROV1 ovarian
# [19] = system: K-562 leukemia
# [20] = system: KM12 colon
# [21] = system: LOX IMVI melanoma
# [22] = system: M14 melanoma
# [23] = system: MCF7 breast
# [24] = system: MDA-MB-231 breast
# [25] = system: MDA-MB-435
# [26] = system: MOLT-4 leukemia
# [27] = system: NCI-H226 lung
# [28] = system: NCI-H23 lung
# [29] = system: NCI-H460 lung
# [30] = system: NCI-H522 lung
# [31] = system: NCI/ADR-RES ovarian
# [32] = system: OVCAR-3 ovarian
# [33] = system: OVCAR-5 ovarian
# [34] = system: OVCAR-8 ovarian
# [35] = system: PC-3 prostate
# [36] = system: RPMI-8226 leukemia
# [37] = system: RXF 393 renal
# [38] = system: SF-268 CNS
# [39] = system: SF-295 CNS
# [40] = system: SF-539 CNS
# [41] = system: SK-MEL-2 melanoma
# [42] = system: SK-MEL-28 melanoma
# [43] = system: SK-MEL-5 melanoma
# [44] = system: SK-OV-3 ovarian
# [45] = system: SN12C renal
# [46] = system: SNB-19 CNS
# [47] = system: SNB-75 CNS
# [48] = system: SR leukemia
# [49] = system: SW-620 colon
# [50] = system: TK-10 renal
# [51] = system: U251 CNS
# [52] = system: UACC-257 melanoma
# [53] = system: UACC-62 melanoma
# [54] = system: UO-31 renal
# [55] = system: CCRF-CEM leukemia
# [56] = system: MALME-3M melanoma
# [57] = system: OVCAR-4 ovarian
# [58] = system: T-47D breast
smiles,measurement,setting,value
CN(CCCCCl)P(=O)(OCc1ccc([N+](=O)[O-])o1)OCC1OC(n2ccc(N)nc2=O)C(F)(F)C1O (stereo not drawn),GI50,[1],0.0614 µM
same,TGI,[1],1.5 µM
same,GI50,[2],5.8 µM
same,TGI,[2],> 74.5 µM
same,GI50,[3],0.73 µM
same,TGI,[3],> 59.5 µM
same,GI50,[4],0.0374 µM
same,GI50,[5],1.57 µM
same,TGI,[5],88.2 µM
same,GI50,[6],0.223 µM
same,GI50,[7],7.47 µM
same,TGI,[7],> 41.6 µM
same,GI50,[8],0.188 µM
same,TGI,[8],> 28.4 µM
same,GI50,[9],2.48 µM
same,TGI,[9],> 75.4 µM
same,GI50,[10],3.15 µM
same,TGI,[10],49.1 µM
same,GI50,[11],1.16 µM
same,TGI,[11],> 100 µM
same,GI50,[12],> 73.5 µM
same,TGI,[12],> 100 µM
same,GI50,[13],1.56 µM
same,TGI,[13],17.7 µM
same,GI50,[14],0.494 µM
same,TGI,[14],> 100 µM
same,GI50,[15],0.155 µM
same,TGI,[15],0.83 µM
same,GI50,[16],> 68 µM
same,TGI,[16],> 100 µM
same,GI50,[17],29.7 µM
same,TGI,[17],> 100 µM
same,GI50,[18],35.4 µM
same,TGI,[18],> 100 µM
same,GI50,[19],13 µM
same,TGI,[19],> 100 µM
same,GI50,[20],14.8 µM
same,TGI,[20],> 73.9 µM
same,GI50,[21],0.754 µM
same,TGI,[21],> 40.6 µM
same,GI50,[22],0.0537 µM
same,TGI,[22],0.269 µM
same,GI50,[23],0.45 µM
same,TGI,[23],> 49 µM
same,GI50,[24],> 49.3 µM
same,TGI,[24],> 100 µM
same,GI50,[25],0.473 µM
same,TGI,[25],> 50.9 µM
same,GI50,[26],0.379 µM
same,TGI,[26],8.92 µM
same,GI50,[27],15.7 µM
same,TGI,[27],> 100 µM
same,GI50,[28],0.0742 µM
same,TGI,[28],1.53 µM
same,GI50,[29],0.3 µM
same,GI50,[30],> 39 µM
same,TGI,[30],> 100 µM
same,GI50,[31],0.419 µM
same,TGI,[31],> 100 µM
same,GI50,[32],3.15 µM
same,TGI,[32],> 45.5 µM
same,GI50,[33],1.92 µM
same,TGI,[33],> 100 µM
same,GI50,[34],0.108 µM
same,GI50,[35],1.82 µM
same,TGI,[35],99.3 µM
same,GI50,[36],1.87 µM
same,TGI,[36],> 100 µM
same,GI50,[37],> 100 µM
same,TGI,[37],> 100 µM
same,GI50,[38],0.257 µM
same,GI50,[39],0.878 µM
same,TGI,[39],> 54.6 µM
same,GI50,[40],0.0417 µM
same,TGI,[40],0.427 µM
same,GI50,[41],> 80.3 µM
same,TGI,[41],> 100 µM
same,GI50,[42],43.1 µM
same,TGI,[42],> 100 µM
same,GI50,[43],3.2 µM
same,TGI,[43],> 67.1 µM
same,GI50,[44],2.22 µM
same,TGI,[44],> 100 µM
same,GI50,[45],0.363 µM
same,TGI,[45],9.62 µM
same,GI50,[46],0.257 µM
same,GI50,[47],12.5 µM
same,TGI,[47],97.5 µM
same,GI50,[48],0.801 µM
same,TGI,[48],5.63 µM
same,GI50,[49],> 62 µM
same,TGI,[49],> 100 µM
same,TGI,[50],> 82.7 µM
same,GI50,[51],0.77 µM
same,TGI,[51],> 86.5 µM
same,GI50,[52],17.2 µM
same,TGI,[52],> 100 µM
same,GI50,[53],1.1 µM
same,TGI,[53],> 100 µM
same,TGI,[54],> 100 µM
COc1cc(-c2nc3sccn3c2-c2ccnc(NCCNS(=O)(=O)c3ccc(Cl)cc3)n2)ccc1F,GI50,[1],7.77 µM
same,TGI,[1],> 100 µM
same,GI50,[3],3.86 µM
same,TGI,[3],> 100 µM
same,GI50,[4],2.77 µM
same,TGI,[4],> 100 µM
same,GI50,[5],2.61 µM
same,TGI,[5],> 100 µM
same,GI50,[6],4.89 µM
same,TGI,[6],> 100 µM
same,GI50,[55],0.48 µM
same,TGI,[55],> 100 µM
same,GI50,[7],3.48 µM
same,TGI,[7],> 100 µM
same,GI50,[8],3.62 µM
same,TGI,[8],> 100 µM
same,GI50,[9],5.04 µM
same,TGI,[9],> 100 µM
same,GI50,[10],5.82 µM
same,TGI,[10],> 100 µM
same,GI50,[11],3.56 µM
same,TGI,[11],> 100 µM
same,GI50,[12],3.33 µM
same,TGI,[12],> 100 µM
same,GI50,[13],3.74 µM
same,TGI,[13],> 100 µM
same,GI50,[14],5.01 µM
same,TGI,[14],> 100 µM
same,GI50,[16],8.05 µM
same,TGI,[16],> 100 µM
same,GI50,[17],4.28 µM
same,TGI,[17],> 100 µM
same,GI50,[18],3 µM
same,TGI,[18],> 100 µM
same,GI50,[19],2.76 µM
same,TGI,[19],> 100 µM
same,GI50,[20],4.26 µM
same,TGI,[20],> 100 µM
same,GI50,[21],3.39 µM
same,TGI,[21],> 100 µM
same,GI50,[22],3.62 µM
same,TGI,[22],> 100 µM
same,GI50,[56],3.35 µM
same,TGI,[56],> 100 µM
same,GI50,[23],3.24 µM
same,TGI,[23],> 100 µM
same,GI50,[25],3.63 µM
same,TGI,[25],58.1 µM
same,GI50,[26],1.42 µM
same,TGI,[26],> 100 µM
same,GI50,[27],2.37 µM
same,TGI,[27],10.5 µM
same,GI50,[28],3.86 µM
same,TGI,[28],> 100 µM
same,GI50,[29],5.16 µM
same,TGI,[29],> 100 µM
same,GI50,[30],2.59 µM
same,TGI,[30],> 100 µM
same,GI50,[31],2.89 µM
same,TGI,[31],> 100 µM
same,GI50,[32],4.94 µM
same,TGI,[32],> 100 µM
same,GI50,[57],3.72 µM
same,TGI,[57],> 100 µM
same,GI50,[33],55 µM
same,TGI,[33],> 100 µM
same,GI50,[34],2.71 µM
same,TGI,[34],> 100 µM
same,GI50,[35],0.577 µM
same,TGI,[35],> 100 µM
same,GI50,[37],1.64 µM
same,TGI,[37],> 100 µM
same,GI50,[38],5.75 µM
same,TGI,[38],> 100 µM
same,GI50,[39],4.07 µM
same,TGI,[39],> 100 µM
same,GI50,[40],6.98 µM
same,TGI,[40],> 100 µM
same,GI50,[41],3.46 µM
same,TGI,[41],35.3 µM
same,GI50,[42],4.37 µM
same,TGI,[42],> 100 µM
same,GI50,[43],1.87 µM
same,TGI,[43],4.19 µM
same,GI50,[44],6.82 µM
same,TGI,[44],> 100 µM
same,GI50,[45],4.11 µM
same,TGI,[45],> 100 µM
same,GI50,[46],74 µM
same,TGI,[46],> 100 µM
same,GI50,[47],4.48 µM
same,TGI,[47],> 100 µM
same,GI50,[48],3.94 µM
same,TGI,[48],> 100 µM
same,GI50,[49],10.8 µM
same,TGI,[49],> 100 µM
same,GI50,[58],1.44 µM
same,TGI,[58],8.46 µM
same,GI50,[50],9.44 µM
same,TGI,[50],> 100 µM
same,GI50,[51],7.67 µM
same,TGI,[51],> 100 µM
same,GI50,[52],4.47 µM
same,TGI,[52],> 100 µM
same,GI50,[53],1.39 µM
same,TGI,[53],5.2 µM
same,GI50,[54],2.72 µM
same,TGI,[54],> 100 µM
